Values joined by “and” are separate entries in the source; they are usually repeats but may differ in a detail not shown here. Equal entries are not always repeated.
Legend:
[1] = biological target: T1, Cdk1/cyclin B (Homo sapiens, UniProt P06493); assay: In vitro kinase activity assay, histone H1 phosphorylation by Cdk1/cyclin B; type: biochemical; conditions: for Phosphorylation (%) Cdk1: 0 nM = 100%
T1 construct: purchased Upstate
Method: To kinase assay buffer (50 mM Tris (pH 7.4), 10 mM magnesium chloride, 1 mM EGTA, 40 mM β-glycerophosphate, 0.1 mM Na3VO4, 1 mM DTT, 0.1 μg/mL leupeptin, 0.1 μg/mL pepstatin A, 0.1 μg/mL antipain and 1 mM phenylmethylsulfonyl fluoride) were added 5 μg histone H1 as a substrate, 20 ng Cdk1/cyclin B or 40 ng Cdk2/cyclin A recombinant protein (Upstate, NY, USA) as an enzyme, 2.5 μCi [γ-32P]ATP, and 100 μM MgAc/ATP. The total reaction volume was adjusted to 50 μl. The compound of Example 2 was added to the reaction mixture, followed by inducing kinase reaction at 30° C. for 20 minutes. Upon completion of the reaction, the reaction mixture proceeded to electrophoresis on 12% SDS-polyacrylamide gel. Phosphorylation levels of Cdk1 and Cdk2 over the concentrations of the compound of Example 2 were confirmed by autoradiography, and the results are shown in FIG. 1, FIG. 2, and Table 1.
The intensity of bands was analyzed by densitometry (GS-800, Bio-Rad).

[2] = system: SNU-354 xenografted tumor; assay: TUNEL assay and cleaved caspase-3 immunohistochemistry of xenografted tumor; type: in vivo, nude mice; conditions: 4 and 20 mg/kg vs control; FIG. 23-A
Method: All the xenografted tumors and liver tissues extracted above were fixed in 36% formaldehyde solution (Junsei Chemical Co., Ltd, Tokyo, JAPAN), followed by paraffin embedding. The embedded tissues were cut into 5 μm sections. H&E staining and TUNEL assay were performed for examining apoptosis with those sections. The expression of cleaved caspase-3 in the tissue section was measured by using cleaved caspase-3 monoclonal antibody (Cell Signaling, MA, USA). ABC peroxidase (Dako Cytomation California, Inc., CA, USA) labeling was performed for immunological sensitization and the results are shown in FIG. 23. As shown in FIG. 23-A, TUNEL positive spots and caspase-3 positive spots were observed more in the group treated with the compound of Example 2 than in the control. […] As shown in FIG. 23-B, it was investigated whether or not the compound of Example 2 could affect normal liver tissues.

T1 sequence (P06493 whole entry): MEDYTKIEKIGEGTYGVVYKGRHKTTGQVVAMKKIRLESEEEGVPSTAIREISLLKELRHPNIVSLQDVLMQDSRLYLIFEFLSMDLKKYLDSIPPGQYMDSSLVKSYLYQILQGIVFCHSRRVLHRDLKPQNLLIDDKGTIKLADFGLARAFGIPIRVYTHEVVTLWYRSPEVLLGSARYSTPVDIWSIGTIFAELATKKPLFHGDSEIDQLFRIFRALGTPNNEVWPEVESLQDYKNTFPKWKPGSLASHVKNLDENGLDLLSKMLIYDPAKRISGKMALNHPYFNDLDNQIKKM
T1 sequence (P14635 whole entry partner): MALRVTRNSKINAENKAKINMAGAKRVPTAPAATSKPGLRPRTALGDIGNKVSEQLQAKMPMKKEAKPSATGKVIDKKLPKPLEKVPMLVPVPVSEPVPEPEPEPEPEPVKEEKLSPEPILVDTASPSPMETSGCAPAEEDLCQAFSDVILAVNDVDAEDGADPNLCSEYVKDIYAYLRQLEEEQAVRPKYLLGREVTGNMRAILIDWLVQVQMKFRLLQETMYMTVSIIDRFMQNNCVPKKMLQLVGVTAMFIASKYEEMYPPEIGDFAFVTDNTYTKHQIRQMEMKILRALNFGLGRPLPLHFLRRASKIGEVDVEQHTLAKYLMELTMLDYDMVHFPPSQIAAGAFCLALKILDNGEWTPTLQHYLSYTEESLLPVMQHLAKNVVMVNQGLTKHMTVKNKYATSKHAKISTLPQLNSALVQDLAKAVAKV

In the case of CC(C)C(=O)OC[C@@H]1O[C@H](n2cnc(N)c3c(C(N)=O)c(Br)nc2-3)[C@H](O)[C@H]1O [Example 2, ((2S,3R,4R,5S)-5-(4-amino-6-bromo-5-carbamoyl-1H-pyrrolo[2,3-d]pyrimidin-1-yl)-3,4-dihydroxy-tetrahydrofuran-2-yl)methyl isobutyrate], the “Phosphorylation (%) Cdk1” value ([1]; 10 nM) is reported as 100% and 99.4%, the “Phosphorylation (%) Cdk1” value ([1]; 20 nM) is reported as 92.2% and the “Phosphorylation (%) Cdk1” value ([1]; 40 nM) is reported as 74.1%. The “Phosphorylation (%) Cdk1” value ([1]; 50 nM) was 50%, the “Phosphorylation (%) Cdk1” value ([1]; 60 nM) was 41.6% and the “Phosphorylation (%) Cdk1” value ([1]; 80 nM) was 15.3%. The “Phosphorylation (%) Cdk1” value ([1]; 100 nM) was 4.3%, the IC50 ([1]; histone H1 phosphorylation) was 50 nM and the “TUNEL positive spots and caspase-3 positive spots in xenografted tumor” value [2] was “observed more”.
